In paper PMC9090415, “Discovery of small molecule inhibitors of Plasmodium falciparum apicoplast DNA polymerase” (Journal of Enzyme Inhibition and Medicinal Chemistry, 2022):

Molecular target: P. falciparum apicoplast DNA polymerase (Pf-apPOL) (Plasmodium falciparum, UniProt Q8ILY1)
Test: Fluorescence-based high-throughput DNA polymerase assay (molecular beacon), primary screen and dose-response
Assay type: biochemical
Summary of the method: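 Single-point screening used 10 µM compound with 20 nM polymerase, 20 nM hairpin substrate and 6 µM dNTPs for 90 min at 25 °C. Confirmatory titrations (2.5–80 µM) followed fluorescence at three times, and IC50 was derived from a fit including a cooperativity term n.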

[1] = primary screen value of the 186 hits; unit not given; 90 min, 10 µM

P. falciparum apicoplast DNA polymerase (Pf-apPOL), sequence (Q8ILY1 entry or part of it): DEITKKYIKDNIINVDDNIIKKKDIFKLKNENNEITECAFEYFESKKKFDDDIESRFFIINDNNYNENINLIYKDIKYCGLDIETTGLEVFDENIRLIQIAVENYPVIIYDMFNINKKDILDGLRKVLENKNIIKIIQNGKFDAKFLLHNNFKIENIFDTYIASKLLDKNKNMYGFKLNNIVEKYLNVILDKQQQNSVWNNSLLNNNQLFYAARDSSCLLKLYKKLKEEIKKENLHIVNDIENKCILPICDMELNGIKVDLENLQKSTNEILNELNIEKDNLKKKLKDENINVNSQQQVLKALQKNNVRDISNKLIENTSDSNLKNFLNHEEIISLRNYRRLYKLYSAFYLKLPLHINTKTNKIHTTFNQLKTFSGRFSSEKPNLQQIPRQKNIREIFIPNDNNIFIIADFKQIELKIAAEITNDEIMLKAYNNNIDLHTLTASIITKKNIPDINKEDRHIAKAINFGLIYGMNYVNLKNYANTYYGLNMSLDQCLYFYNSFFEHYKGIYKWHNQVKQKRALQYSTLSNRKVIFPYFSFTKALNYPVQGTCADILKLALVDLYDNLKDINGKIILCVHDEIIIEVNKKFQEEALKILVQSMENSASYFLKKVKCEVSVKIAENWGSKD

CCOc1ccc2cc(C3=NN(C(=O)CCC(=O)O)C(c4ccc(C)cc4)C3)c(=O)[nH]c2c1 (centres unmarked) [KU0056200]
% inhibition Apo pol 10' (DRC-1; concentration 2.5; 10'): 1.583% | % inhibition Apol 90' (DRC-1; concentration 2.5; 90'): -4.0405% | % inhibition apPOL 180' (DRC-1; concentration 2.5; 180'): -8.679% | % inhibition Apo pol 10' (DRC-1; concentration 5; 10'): 6.049% | % inhibition Apol 90' (DRC-1; concentration 5; 90'): 0.1368% | % inhibition apPOL 180' (DRC-1; concentration 5; 180'): -5.456% | % inhibition Apo pol 10' (DRC-1; concentration 10; 10'): 12.8328% | % inhibition Apol 90' (DRC-1; concentration 10; 90'): 2.997% | % inhibition apPOL 180' (DRC-1; concentration 10; 180'): -3.315% | % inhibition Apo pol 10' (DRC-1; concentration 20; 10'): 32.0591% | % inhibition Apol 90' (DRC-1; concentration 20; 90'): 18.8847% | % inhibition apPOL 180' (DRC-1; concentration 20; 180'): 8.488% | % inhibition Apo pol 10' (DRC-1; concentration 40; 10'): 80.8761% | % inhibition Apol 90' (DRC-1; concentration 40; 90'): 73.3726% | % inhibition apPOL 180' (DRC-1; concentration 40; 180'): 64.1358% | % inhibition Apo pol 10' (DRC-1; concentration 80 (unit not given); 10'): 88.576% | % inhibition Apol 90' (DRC-1; concentration 80; 90'): 90.0975% | % inhibition apPOL 180' (DRC-1; concentration 80; 180'): 90.0477% | % inhibition Apo pol 5' (DRC-2; 5'; concentration 10): 23% | % inhibition ApPOL 90' (DRC-2; 90'; concentration 10): 23% | % inhibition ApPOL 90' (DRC-2; 90'; concentration 40): 73% | % inhibition apPOL 180' (DRC-2; 180'; concentration 40): 73% | % inhibition Apo pol 5' (DRC-2; concentration 2.5; 5'): 2.23% | % inhibition Apol 40' (DRC-2; concentration 2.5; 40'): 0.754% | % inhibition ApPOL 90' (DRC-2; concentration 2.5; 90'): -0.536% | % inhibition apPOL 180' (DRC-2; concentration 2.5; 180'): -0.06% | % inhibition Apo pol 5' (DRC-2; concentration 5; 5'): 4.72% | % inhibition Apol 40' (DRC-2; concentration 5; 40'): 6% | % inhibition ApPOL 90' (DRC-2; concentration 5; 90'): 4.71% | % inhibition apPOL 180' (DRC-2; concentration 5; 180'): 1.23% | % inhibition Apo pol 5' (DRC-2; concentration 10; 5'): 23% | % inhibition Apol 40' (DRC-2; concentration 10; 40'): 25% | % inhibition ApPOL 90' (DRC-2; concentration 10; 90'): 23% | % inhibition apPOL 180' (DRC-2; concentration 10; 180'): 16% | % inhibition Apo pol 5' (DRC-2; concentration 20; 5'): 42% | % inhibition Apol 40' (DRC-2; concentration 20; 40'): 49% | % inhibition ApPOL 90' (DRC-2; concentration 20; 90'): 47% | % inhibition apPOL 180' (DRC-2; concentration 20; 180'): 39% | % inhibition Apo pol 5' (DRC-2; concentration 40; 5'): 54% | % inhibition Apol 40' (DRC-2; concentration 40; 40'): 70% | % inhibition ApPOL 90' (DRC-2; concentration 40; 90'): 73% | % inhibition apPOL 180' (DRC-2; concentration 40; 180'): 73% | % inhibition Apo pol 5' (DRC-2; concentration 80; 5'): 55% | % inhibition Apol 40' (DRC-2; concentration 80; 40'): 74% | % inhibition ApPOL 90' (DRC-2; concentration 80; 90'): 78% | % inhibition apPOL 180' (DRC-2; concentration 80; 180'): 82% | DNA Pol [1]: 36 | DNA Pol (primary screen value; head prints only 'DNA Pol'; 90 min, 10 µM): 36

CO/N=C(\C(=O)N[C@@H]1C(=O)N2C(C(=O)[O-])=C(CSc3nc(=O)c([O-])nn3C)CSC12)c1csc(N)n1.[Na+].[Na+] (some centres unmarked) [Molecule 83, CO/N=C(/c1csc(n1)N)\C(=O)N[C@@H]1C(=O)N2C1SCC(=C2C(=O)[O-])CSc1nc(=O)c(nn1C)[O-].[Na+].[Na+]]
DNA Pol (186 hits, value of the hit list (primary screen); unit not given; 90 min, 10 µM): 48 | % inhibition Apo pol 10' (DRC-1; 10'; concentration 2.5): 18.7657% | % inhibition Apo pol 10' (DRC-1; 10'; concentration 5): 26.0446% | % inhibition Apo pol 10' (DRC-1; 10'; concentration 10): 38.6298% | % inhibition Apo pol 10' (DRC-1; 10'; concentration 20): 50.9335% | % inhibition Apo pol 10' (DRC-1; 10'; concentration 40): 64.2256% | % inhibition Apo pol 10' (DRC-1; 10'; concentration 80): 74.1492% | % inhibition Apol 90' (DRC-1; 90'; concentration 2.5): -5.899% | % inhibition Apol 90' (DRC-1; 90'; concentration 5): -4.018% | % inhibition Apol 90' (DRC-1; 90'; concentration 10): 2.565% | % inhibition Apol 90' (DRC-1; 90'; concentration 20): 10.9979% | % inhibition Apol 90' (DRC-1; 90'; concentration 40): 25.6327% | % inhibition Apol 90' (DRC-1; 90'; concentration 80): 43.9979% | % inhibition apPOL 180' (DRC-1; 180'; concentration 2.5): -15.6799% | % inhibition apPOL 180' (DRC-1; 180'; concentration 5): -16.0147% | % inhibition apPOL 180' (DRC-1; 180'; concentration 10): -9.688% | % inhibition apPOL 180' (DRC-1; 180'; concentration 20): -2.55% | % inhibition apPOL 180' (DRC-1; 180'; concentration 40): 10.5527% | % inhibition apPOL 180' (DRC-1; 180'; concentration 80): 28.4912% | % inhibition Apo pol 5' (DRC-2, 5', concentration 2.5): 1.37% | % inhibition Apo pol 5' (DRC-2, 5', concentration 5): 6% | % inhibition Apo pol 5' (DRC-2, 5', concentration 10): 18% | % inhibition Apo pol 5' (DRC-2, 5', concentration 20): 30% | % inhibition Apo pol 5' (DRC-2, 5', concentration 40): 42% | % inhibition Apo pol 5' (DRC-2, 5', concentration 80): 54% | % inhibition Apol 40' (DRC-2, 40', concentration 2.5): -6% | % inhibition Apol 40' (DRC-2, 40', concentration 5): -1.68% | % inhibition Apol 40' (DRC-2, 40', concentration 10): 9% | % inhibition Apol 40' (DRC-2, 40', concentration 20): 20% | % inhibition Apol 40' (DRC-2, 40', concentration 40): 37% | % inhibition Apol 40' (DRC-2, 40', concentration 80): 59% | % inhibition ApPOL 90' (DRC-2, 90', concentration 2.5): -8% | % inhibition ApPOL 90' (DRC-2, 90', concentration 5): -7% | % inhibition ApPOL 90' (DRC-2, 90', concentration 10): 1.87% | % inhibition ApPOL 90' (DRC-2, 90', concentration 20): 12% | % inhibition ApPOL 90' (DRC-2, 90', concentration 40): 30% | % inhibition ApPOL 90' (DRC-2, 90', concentration 80): 56% | % inhibition apPOL 180' (DRC-2, 180', concentration 2.5): -10% | % inhibition apPOL 180' (DRC-2, 180', concentration 5): -12% | % inhibition apPOL 180' (DRC-2, 180', concentration 10): -7% | % inhibition apPOL 180' (DRC-2, 180', concentration 20): 5% | % inhibition apPOL 180' (DRC-2, 180', concentration 40): 21% | % inhibition apPOL 180' (DRC-2, 180', concentration 80): 48% | % inhibition Apo pol 5' (DRC-2; 5'; concentration 20): 30% | % inhibition ApPOL 90' (DRC-2; 90'; concentration 5): -7% | % inhibition ApPOL 90' (DRC-2; 90'; concentration 40): 30% | % inhibition apPOL 180' (DRC-2; 180'; concentration 10): -7% | DNA Pol (primary screen value, 'DNA Pol' only; 90 min, 10 µM): 48

O=C1N/C(=N/c2ccccc2Cl)S/C1=C/c1ccc([N+](=O)[O-])o1 [KU0054524]
% inhibition Apo pol 10' (DRC-1; 10'; concentration 2.5): 7.564% | % inhibition Apo pol 10' (DRC-1; 10'; concentration 5): 28.3365% | % inhibition Apo pol 10' (DRC-1; 10'; concentration 10): 42.7276% | % inhibition Apo pol 10' (DRC-1; 10'; concentration 20): 56.2802% | % inhibition Apo pol 10' (DRC-1; 10'; concentration 40): 80.0033% | % inhibition Apo pol 10' (DRC-1; 10'; concentration 80): 85.9961% | % inhibition Apol 90' (DRC-1; 90'; concentration 2.5): 2.857% | % inhibition Apol 90' (DRC-1; 90'; concentration 5): 16.2843% | % inhibition Apol 90' (DRC-1; 90'; concentration 10): 26.4398% | % inhibition Apol 90' (DRC-1; 90'; concentration 20): 38.2807% | % inhibition Apol 90' (DRC-1; 90'; concentration 40): 70.6237% | % inhibition Apol 90' (DRC-1; 90'; concentration 80): 84.7542% | % inhibition apPOL 180' (DRC-1; 180'; concentration 2.5): -2.619% | % inhibition apPOL 180' (DRC-1; 180'; concentration 5): 9.438% | % inhibition apPOL 180' (DRC-1; 180'; concentration 10): 15.4402% | % inhibition apPOL 180' (DRC-1; 180'; concentration 20): 23.638% | % inhibition apPOL 180' (DRC-1; 180'; concentration 40): 57.9424% | % inhibition apPOL 180' (DRC-1; 180'; concentration 80): 81.189% | % inhibition Apo pol 5' (DRC-2, 5', concentration 10 (unit not given)): 42% | % inhibition Apol 40' (DRC-2, 40', concentration 40 (unit not given)): 58% | % inhibition ApPOL 90' (DRC-2, 90', concentration 10 (unit not given)): 42% | % inhibition apPOL 180' (DRC-2, 180', concentration 10 (unit not given)): 31% | % inhibition apPOL 180' (DRC-2, 180', concentration 20 (unit not given)): 58% | % inhibition Apo pol 5' (DRC-2; 5'; concentration 2.5): 17% | % inhibition Apo pol 5' (DRC-2; 5'; concentration 5): 22% | % inhibition Apo pol 5' (DRC-2; 5'; concentration 10): 42% | % inhibition Apo pol 5' (DRC-2; 5'; concentration 20): 46% | % inhibition Apo pol 5' (DRC-2; 5'; concentration 40): 25% | % inhibition Apo pol 5' (DRC-2; 5'; concentration 80): 31% | % inhibition Apo pol 5' (DRC-2; 5'; concentration 80 (unit not given)): 31% | % inhibition Apol 40' (DRC-2; 40'; concentration 2.5): 14% | % inhibition Apol 40' (DRC-2; 40'; concentration 5): 21% | % inhibition Apol 40' (DRC-2; 40'; concentration 10): 45% | % inhibition Apol 40' (DRC-2; 40'; concentration 20): 62% | % inhibition Apol 40' (DRC-2; 40'; concentration 40): 58% | % inhibition Apol 40' (DRC-2; 40'; concentration 80): 61% | % inhibition ApPOL 90' (DRC-2; 90'; concentration 2.5): 11% | % inhibition ApPOL 90' (DRC-2; 90'; concentration 5): 16% | % inhibition ApPOL 90' (DRC-2; 90'; concentration 10): 42% | % inhibition ApPOL 90' (DRC-2; 90'; concentration 20): 63% | % inhibition ApPOL 90' (DRC-2; 90'; concentration 40): 65% | % inhibition ApPOL 90' (DRC-2; 90'; concentration 80): 68% | % inhibition apPOL 180' (DRC-2; 180'; concentration 2.5): 7% | % inhibition apPOL 180' (DRC-2; 180'; concentration 5): 8% | % inhibition apPOL 180' (DRC-2; 180'; concentration 10): 31% | % inhibition apPOL 180' (DRC-2; 180'; concentration 20): 58% | % inhibition apPOL 180' (DRC-2; 180'; concentration 40): 67% | % inhibition apPOL 180' (DRC-2; 180'; concentration 80): 73% | DNA Pol [1]: 44 | DNA Pol (primary screen value, head "DNA Pol", unit not given; 90 min, 10 µM): 44
